Test results taken from PMC9109600 (ACS chemical biology, 2021).

biological target: T1, Guanine deaminase (GDA) (Homo sapiens, UniProt Q9Y2T3); assay: real-time fluorescence inhibition assay with tzGN as substrate; format: biochemical
T1 sequence (Q9Y2T3 1-454): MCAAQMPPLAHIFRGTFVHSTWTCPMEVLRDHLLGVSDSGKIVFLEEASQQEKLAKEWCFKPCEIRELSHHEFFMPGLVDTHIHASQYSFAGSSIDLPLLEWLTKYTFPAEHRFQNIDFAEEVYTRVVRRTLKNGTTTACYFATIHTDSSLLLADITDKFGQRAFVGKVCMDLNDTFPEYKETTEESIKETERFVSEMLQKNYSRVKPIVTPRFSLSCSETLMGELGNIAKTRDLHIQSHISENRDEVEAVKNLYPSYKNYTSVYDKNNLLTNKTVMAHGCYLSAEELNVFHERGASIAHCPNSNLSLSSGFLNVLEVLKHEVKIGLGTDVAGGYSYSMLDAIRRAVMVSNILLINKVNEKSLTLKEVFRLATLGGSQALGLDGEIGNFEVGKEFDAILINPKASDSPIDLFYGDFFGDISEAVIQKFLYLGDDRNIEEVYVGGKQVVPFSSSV

IC50 | SMILES
100 µM | NC(=O)c1[nH]cnc1N [AICA, 5-aminoimidazole-4-carboxamide]
80 µM | NC(=O)c1nscc1N [ATCA, 4-aminoisothiazole-3-carboxamide]

SMILES | IC50
O=C(O)c1c[nH]cn1 [ICA, 4-imidazolecarboxylic acid] | 2000 µM
